One block for each molecule: values may come before it.
Columns and labels:
TREK-1 = molecular target: T1, TREK-1 (Homo sapiens, UniProt O95069); assay: manual patch clamp (MPC) assay, TREK-1, species not stated; format: cell-based
T1 sequence (O95069 1-426): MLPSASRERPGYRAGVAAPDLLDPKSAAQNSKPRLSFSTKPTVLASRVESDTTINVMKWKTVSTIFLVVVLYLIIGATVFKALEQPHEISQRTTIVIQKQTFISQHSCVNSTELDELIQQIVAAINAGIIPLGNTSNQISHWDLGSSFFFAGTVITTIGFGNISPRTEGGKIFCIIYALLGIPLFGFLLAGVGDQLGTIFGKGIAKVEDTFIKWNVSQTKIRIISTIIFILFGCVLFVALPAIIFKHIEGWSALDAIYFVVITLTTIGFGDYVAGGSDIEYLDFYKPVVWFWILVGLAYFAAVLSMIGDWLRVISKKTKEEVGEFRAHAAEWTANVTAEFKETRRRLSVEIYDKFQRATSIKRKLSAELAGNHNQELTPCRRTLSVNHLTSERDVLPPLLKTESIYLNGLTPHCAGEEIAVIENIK

Adrenergic α1B = Adrenergic α1B (Rattus norvegicus, UniProt P15823); assay: Eurofins Lead Profiling radioligand binding; conditions: title: 30 μM
Adrenergic α1D = Adrenergic α1D (Homo sapiens, UniProt P25100); assay: Eurofins Lead Profiling radioligand binding; conditions: title: 30 μM
Adrenergic α2A = Adrenergic α2A (Homo sapiens, UniProt P08913); assay: Eurofins Lead Profiling radioligand binding; conditions: title: 30 μM
Bradykinin B1 = Bradykinin B1 (Homo sapiens, UniProt P46663); assay: Eurofins Lead Profiling radioligand binding; conditions: title: 30 μM
[1] = tested on: Calcium Channel L-Type, Dihydropyridine; assay: Eurofins Lead Profiling radioligand binding; set-up: species or system Rat; conditions: title: 30 μM
Calcium Channel N-Type = Calcium Channel N-Type (Rattus norvegicus, UniProt Q02294); assay: Eurofins Lead Profiling radioligand binding; conditions: title: 30 μM
Dopamine D3 = Dopamine D3 (Homo sapiens, UniProt P35462); assay: Eurofins Lead Profiling radioligand binding; conditions: title: 30 μM
Endothelin ETA = Endothelin ETA (Homo sapiens, UniProt P25101); assay: Eurofins Lead Profiling radioligand binding; conditions: title: 30 μM
[2] = tested on: GABAA, Flunitrazepam, Central; assay: Eurofins Lead Profiling radioligand binding; set-up: species or system Rat; conditions: title: 30 μM
GABAA, Muscimol, Central = assay: Eurofins Lead Profiling radioligand binding; set-up: species or system Rat; conditions: title: 30 μM
GABAB1A = GABAB1A (Homo sapiens, UniProt Q9UBS5); assay: Eurofins Lead Profiling radioligand binding; conditions: title: 30 μM
Glucocorticoid = Glucocorticoid (Homo sapiens, UniProt P04150); assay: Eurofins Lead Profiling radioligand binding; conditions: title: 30 μM
Histamine H1 = Histamine H1 (Homo sapiens, UniProt P35367); assay: Eurofins Lead Profiling radioligand binding; conditions: title: 30 μM
Histamine H2 = Histamine H2 (Homo sapiens, UniProt P25021); assay: Eurofins Lead Profiling radioligand binding; conditions: title: 30 μM
Histamine H3 = Histamine H3 (Homo sapiens, UniProt Q9Y5N1); assay: Eurofins Lead Profiling radioligand binding; conditions: title: 30 μM
Interleukin IL-1 R1 = Interleukin IL-1 R1 (Mus musculus, UniProt P13504); assay: Eurofins Lead Profiling radioligand binding; conditions: title: 30 μM
[3] = molecular target: Leukotriene, Cysteinyl CysLT1 (Homo sapiens, UniProt Q9Y271); assay: Eurofins Lead Profiling radioligand binding; conditions: title: 30 μM
Potassium Channel [SKCA] = assay: Eurofins Lead Profiling radioligand binding; set-up: species or system Rat; conditions: title: 30 μM
Purinergic P2X = assay: Eurofins Lead Profiling radioligand binding; set-up: species or system Rabbit; conditions: title: 30 μM
Serotonin (5-HT1A) = Serotonin (5-HT1A) (Homo sapiens, UniProt P08908); assay: Eurofins Lead Profiling radioligand binding; conditions: title: 30 μM
Sodium Channel, Site 2 = assay: Eurofins Lead Profiling radioligand binding; set-up: species or system Rat; conditions: title: 30 μM
[4] = molecular target: Transporter, Norepinephrine (NET) (Homo sapiens, UniProt P23975); assay: Eurofins Lead Profiling radioligand binding; conditions: title: 30 μM
Vanilloid = Vanilloid (Rattus norvegicus, UniProt O35433); assay: Eurofins Lead Profiling radioligand binding; conditions: title: 30 μM
hCav1.2 = molecular target: T2, hCav1.2 (Homo sapiens, UniProt Q13936); assay: Cav1.2 calcium flux assay; format: cell-based; conditions: Ca2+ flux assay
T2 construct: host or cells: CHO
Experimental: % inhibition = 100 - (ΔRatio of test compound - ΔRatio of 1 µM control compound)/(ΔRatio of 0.3% DMSO - ΔRatio of 1 µM control compound)x100
Cav1.2 calcium flux assay protocol
CHO cells stably expressing human Cav1.2/b2/a2/d1 hCav1.2/CHO were purchased from ChanTest. hCav1.2/CHO were plated in 384-well plates at a density of 1.0x10^4 cells/well, and cultured overnight. After the wash by HBSS + 20 mM HEPES buffer, cells were loaded with Fluo-4 dye for 1 hour at room temperature. After the wash by HBSS + 20mM HEPES buffer, the fluorescent intensity was measured by Panoptic and test compounds, control compounds (verapamil) or 0.3% DMSO were added to each well. The change of fluorescent intensity (ΔRatio) and % inhibition to compare the efficacy and potency of test compounds were calculated using the […]
ΔRatio = (fluorescent intensity at 300 seconds after compound addition)/(average of fluorescent […]
% inhibition = 100 - (ΔRatio of test compound - ΔRatio of 10 µM control compound)/(ΔRatio of 0.3% DMSO - ΔRatio of 10 µM control compound)x100
In vitro Plasma protein binding and Brain homogenate binding: Determination of fraction unbound (f u) in plasma was conducted in vitro via equilibrium dialysis using HTDialysis (HTD) membrane plates. The top half of the plate was filled with 100 uL of Dubelco’s Phosphate Buffered Saline, pH 7.4 (DPBS). […]

Sequence of Vanilloid (O35433 whole entry): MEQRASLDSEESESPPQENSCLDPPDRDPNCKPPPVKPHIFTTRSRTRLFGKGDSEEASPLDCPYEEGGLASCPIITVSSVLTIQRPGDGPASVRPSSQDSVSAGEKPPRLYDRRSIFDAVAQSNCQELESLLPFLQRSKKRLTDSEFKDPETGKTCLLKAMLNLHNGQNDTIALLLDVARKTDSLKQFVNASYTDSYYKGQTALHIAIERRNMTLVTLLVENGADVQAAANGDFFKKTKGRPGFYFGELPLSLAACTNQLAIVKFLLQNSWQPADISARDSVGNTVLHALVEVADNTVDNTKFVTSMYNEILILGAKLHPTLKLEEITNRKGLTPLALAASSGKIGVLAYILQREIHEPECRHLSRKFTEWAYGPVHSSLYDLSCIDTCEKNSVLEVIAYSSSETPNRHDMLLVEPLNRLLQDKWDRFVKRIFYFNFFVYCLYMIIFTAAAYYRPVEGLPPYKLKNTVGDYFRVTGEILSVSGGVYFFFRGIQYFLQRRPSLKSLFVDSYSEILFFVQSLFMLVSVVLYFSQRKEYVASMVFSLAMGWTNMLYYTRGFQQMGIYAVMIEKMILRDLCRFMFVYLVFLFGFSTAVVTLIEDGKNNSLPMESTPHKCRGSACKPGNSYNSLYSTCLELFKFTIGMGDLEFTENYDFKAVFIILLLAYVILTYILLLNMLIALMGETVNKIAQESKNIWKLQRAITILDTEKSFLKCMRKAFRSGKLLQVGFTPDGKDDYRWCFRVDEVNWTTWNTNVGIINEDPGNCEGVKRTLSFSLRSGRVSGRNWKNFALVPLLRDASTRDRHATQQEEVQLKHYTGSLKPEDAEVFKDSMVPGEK
Sequence of Dopamine D3 (P35462 whole entry): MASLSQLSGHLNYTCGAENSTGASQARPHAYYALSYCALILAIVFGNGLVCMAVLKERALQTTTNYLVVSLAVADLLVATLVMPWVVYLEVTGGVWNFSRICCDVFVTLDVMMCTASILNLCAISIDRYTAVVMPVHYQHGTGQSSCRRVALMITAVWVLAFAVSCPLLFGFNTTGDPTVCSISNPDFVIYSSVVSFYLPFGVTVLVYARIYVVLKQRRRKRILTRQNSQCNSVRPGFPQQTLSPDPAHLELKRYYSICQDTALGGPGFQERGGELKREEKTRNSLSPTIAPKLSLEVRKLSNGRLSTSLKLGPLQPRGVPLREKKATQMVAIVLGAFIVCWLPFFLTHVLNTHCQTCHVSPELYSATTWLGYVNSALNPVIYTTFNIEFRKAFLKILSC
Sequence of Transporter, Norepinephrine (NET) (P23975 whole entry): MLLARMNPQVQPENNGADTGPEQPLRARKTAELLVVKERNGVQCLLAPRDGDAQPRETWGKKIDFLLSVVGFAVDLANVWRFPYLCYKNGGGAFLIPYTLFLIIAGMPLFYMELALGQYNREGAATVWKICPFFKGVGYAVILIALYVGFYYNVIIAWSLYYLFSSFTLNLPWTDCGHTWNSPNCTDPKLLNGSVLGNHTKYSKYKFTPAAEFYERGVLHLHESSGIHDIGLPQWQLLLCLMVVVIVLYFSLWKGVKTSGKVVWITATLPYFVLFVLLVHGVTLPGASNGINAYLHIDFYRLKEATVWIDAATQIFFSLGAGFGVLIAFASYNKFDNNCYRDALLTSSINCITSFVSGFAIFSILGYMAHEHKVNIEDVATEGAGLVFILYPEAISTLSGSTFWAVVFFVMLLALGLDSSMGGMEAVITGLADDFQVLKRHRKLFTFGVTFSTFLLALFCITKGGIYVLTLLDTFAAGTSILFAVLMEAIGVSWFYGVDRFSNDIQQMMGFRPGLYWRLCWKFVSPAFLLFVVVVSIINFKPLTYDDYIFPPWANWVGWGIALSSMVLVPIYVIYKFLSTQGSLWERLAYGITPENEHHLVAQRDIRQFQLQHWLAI
Sequence of Histamine H1 (P35367 whole entry): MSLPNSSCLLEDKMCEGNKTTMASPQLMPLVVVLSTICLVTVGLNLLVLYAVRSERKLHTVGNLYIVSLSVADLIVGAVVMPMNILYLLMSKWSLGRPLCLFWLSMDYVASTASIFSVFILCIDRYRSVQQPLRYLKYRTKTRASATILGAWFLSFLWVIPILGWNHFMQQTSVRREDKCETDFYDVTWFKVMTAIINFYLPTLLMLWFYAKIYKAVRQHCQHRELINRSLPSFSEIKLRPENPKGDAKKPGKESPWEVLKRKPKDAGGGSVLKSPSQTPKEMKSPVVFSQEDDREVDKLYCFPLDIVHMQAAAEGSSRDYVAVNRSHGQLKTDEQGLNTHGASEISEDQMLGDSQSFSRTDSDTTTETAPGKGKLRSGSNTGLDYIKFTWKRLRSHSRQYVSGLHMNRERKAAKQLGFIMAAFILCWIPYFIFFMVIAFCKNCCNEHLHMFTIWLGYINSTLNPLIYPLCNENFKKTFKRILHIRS
Sequence of Adrenergic α1B (P15823 whole entry): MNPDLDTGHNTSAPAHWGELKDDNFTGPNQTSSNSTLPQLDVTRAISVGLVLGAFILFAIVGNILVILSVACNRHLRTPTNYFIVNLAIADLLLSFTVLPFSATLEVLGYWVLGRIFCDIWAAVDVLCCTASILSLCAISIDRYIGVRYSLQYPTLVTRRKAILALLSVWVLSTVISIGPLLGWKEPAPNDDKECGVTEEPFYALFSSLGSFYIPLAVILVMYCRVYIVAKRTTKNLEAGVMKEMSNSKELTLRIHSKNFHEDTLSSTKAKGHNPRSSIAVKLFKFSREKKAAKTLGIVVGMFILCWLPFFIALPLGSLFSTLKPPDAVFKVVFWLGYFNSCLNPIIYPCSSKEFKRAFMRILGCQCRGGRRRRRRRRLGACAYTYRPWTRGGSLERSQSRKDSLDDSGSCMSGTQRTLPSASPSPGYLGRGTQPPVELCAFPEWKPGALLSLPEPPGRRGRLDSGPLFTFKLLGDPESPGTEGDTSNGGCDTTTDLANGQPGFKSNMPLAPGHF
Sequence of Serotonin (5-HT1A) (P08908 whole entry): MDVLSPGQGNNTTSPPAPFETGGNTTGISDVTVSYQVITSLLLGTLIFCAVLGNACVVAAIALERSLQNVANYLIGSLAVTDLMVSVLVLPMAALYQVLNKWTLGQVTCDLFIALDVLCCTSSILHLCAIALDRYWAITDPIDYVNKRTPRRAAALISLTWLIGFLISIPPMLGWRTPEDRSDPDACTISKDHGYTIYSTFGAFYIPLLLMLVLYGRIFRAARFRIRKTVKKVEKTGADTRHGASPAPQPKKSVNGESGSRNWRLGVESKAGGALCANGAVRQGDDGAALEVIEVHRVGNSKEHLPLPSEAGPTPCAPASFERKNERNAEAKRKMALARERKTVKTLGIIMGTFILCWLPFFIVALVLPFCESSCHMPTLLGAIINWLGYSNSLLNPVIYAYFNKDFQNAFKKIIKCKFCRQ
Sequence of Leukotriene, Cysteinyl CysLT1 (Q9Y271 whole entry): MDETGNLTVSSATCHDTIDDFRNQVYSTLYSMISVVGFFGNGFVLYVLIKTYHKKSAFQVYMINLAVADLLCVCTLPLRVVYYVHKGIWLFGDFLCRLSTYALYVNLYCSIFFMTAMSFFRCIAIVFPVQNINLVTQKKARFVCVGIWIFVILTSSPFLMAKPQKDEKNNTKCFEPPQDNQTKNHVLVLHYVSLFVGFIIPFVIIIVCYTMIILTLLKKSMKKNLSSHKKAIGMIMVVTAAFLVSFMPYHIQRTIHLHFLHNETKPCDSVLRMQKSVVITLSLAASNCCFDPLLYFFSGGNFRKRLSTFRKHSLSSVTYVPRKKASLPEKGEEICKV
Sequence of Histamine H3 (Q9Y5N1 whole entry): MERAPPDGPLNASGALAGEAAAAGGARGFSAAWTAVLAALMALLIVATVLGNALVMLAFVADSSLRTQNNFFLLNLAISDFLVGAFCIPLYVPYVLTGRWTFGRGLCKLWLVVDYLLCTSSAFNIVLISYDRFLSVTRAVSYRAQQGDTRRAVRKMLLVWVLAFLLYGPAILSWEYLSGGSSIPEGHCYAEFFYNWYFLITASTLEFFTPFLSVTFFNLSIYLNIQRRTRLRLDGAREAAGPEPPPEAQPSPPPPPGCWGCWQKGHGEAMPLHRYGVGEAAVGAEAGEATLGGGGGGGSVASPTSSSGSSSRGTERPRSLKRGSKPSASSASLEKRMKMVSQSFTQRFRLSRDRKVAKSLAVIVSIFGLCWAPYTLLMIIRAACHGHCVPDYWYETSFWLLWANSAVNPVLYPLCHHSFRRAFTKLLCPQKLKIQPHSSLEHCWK
Sequence of Interleukin IL-1 R1 (P13504 20-576): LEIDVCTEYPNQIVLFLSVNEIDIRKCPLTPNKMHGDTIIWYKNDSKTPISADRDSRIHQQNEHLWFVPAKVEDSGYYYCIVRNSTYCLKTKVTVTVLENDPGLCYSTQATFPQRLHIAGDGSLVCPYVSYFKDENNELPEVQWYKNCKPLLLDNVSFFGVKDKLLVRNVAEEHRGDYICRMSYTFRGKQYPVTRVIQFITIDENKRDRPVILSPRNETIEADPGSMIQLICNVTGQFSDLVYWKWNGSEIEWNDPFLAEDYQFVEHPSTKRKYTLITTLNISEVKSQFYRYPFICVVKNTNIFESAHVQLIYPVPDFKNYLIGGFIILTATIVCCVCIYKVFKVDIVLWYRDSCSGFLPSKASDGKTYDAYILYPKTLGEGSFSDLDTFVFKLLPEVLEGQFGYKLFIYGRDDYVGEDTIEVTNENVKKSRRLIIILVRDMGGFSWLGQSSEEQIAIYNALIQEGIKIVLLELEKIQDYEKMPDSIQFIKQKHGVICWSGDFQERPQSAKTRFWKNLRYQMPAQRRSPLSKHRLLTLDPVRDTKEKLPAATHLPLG
Sequence of Bradykinin B1 (P46663 whole entry): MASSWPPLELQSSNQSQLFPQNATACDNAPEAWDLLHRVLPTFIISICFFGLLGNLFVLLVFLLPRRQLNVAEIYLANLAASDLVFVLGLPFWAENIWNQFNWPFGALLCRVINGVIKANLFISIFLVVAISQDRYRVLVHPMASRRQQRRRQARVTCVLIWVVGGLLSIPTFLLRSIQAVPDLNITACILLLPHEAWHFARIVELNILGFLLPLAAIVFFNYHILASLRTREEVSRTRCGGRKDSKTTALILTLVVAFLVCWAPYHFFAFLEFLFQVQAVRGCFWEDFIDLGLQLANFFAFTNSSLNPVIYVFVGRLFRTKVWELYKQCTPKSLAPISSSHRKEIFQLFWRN

EC50 (TREK-1): 7.4 µM
Emax (TREK-1): 99%
Compound: CS(=O)(=O)Nc1ccc(C(=O)NCc2ccc(Cl)cc2Cl)cc1 [Compound 13]

Compound: O=C(NCc1ccc(OC(F)(F)F)cc1F)c1ccc2ncnn2c1 [Compound 19b]
inhibition at 10 µM (Adrenergic α1B): 6%
inhibition at 10 µM (Adrenergic α1D): 4%
inhibition (Adrenergic α2A): 3%
inhibition (Bradykinin B1): -12%
% Inhibition at 10 µM [1]: -2%
inhibition (Calcium Channel N-Type): -1%
inhibition (Dopamine D3): 13%
inhibition (Endothelin ETA): -3%
% Inhibition at 10 µM [2]: 0%
% Inhibition at 10 µM (GABAA, Muscimol, Central): -1%
inhibition (GABAB1A): -1%
inhibition (Glucocorticoid): 7%
inhibition (Histamine H1): 8%
inhibition (Histamine H2): -20%
inhibition (Histamine H3): 1%
inhibition (Interleukin IL-1 R1): 9%
inhibition [3]: 5%
% Inhibition at 10 µM (Potassium Channel [SKCA]): 4%
% Inhibition at 10 µM (Purinergic P2X): 22%
inhibition (Serotonin (5-HT1A)): 2%
% Inhibition at 10 µM (Sodium Channel, Site 2): 15%
inhibition [4]: 29%
inhibition (Vanilloid): -8%

Compound: O=C(NCc1ccc(OC(F)(F)F)cc1Cl)c1ccc2nncn2c1 [Compound 20]
IC50 (hCav1.2): > 30 µM

From article PMC11887051, “Discovery of ONO-2920632 (VU6011887): A Highly Selective and CNS Penetrant TREK-2 (TWIK-Related K+ Channel 2) Preferring Activator In Vivo Tool Compound” (ACS Chemical Neuroscience, 2025)
